Assay: primary cutaneous irritation test
Format: in vivo, lapin
Settings: rabbit; compared with other allethrin isomers, natural pyrethrin, or hydrocarbon-containing compositions
Source text: Le pouvoir irritant des compositions selon l'invention a été étudié chez le lapin, par un test d'irritation cutanée primaire, dont les conditions de réalisation sont définies dans le Journal Officiel de la République Française du 21 avril 1971, complété par celui du 5 juin 1973. Il a été comparé à celui des compositions où des pyréthrines naturelles remplaçaient les pyréthrinoldes de l'invention et à celui de compositions résultant du mélange des pyréthrinoides et d'huile de vaseline ou d'isododécane.

SMILES: C=CCC1=C(C)[C@@H](OC(=O)[C@@H]2[C@@H](C=C(C)C)C2(C)C)CC1=O [pyréthrinoide de l'exemple 1, d-transchrysanthémate de d-alléthrolone]
- pouvoir irritant (comparison in words): beaucoup moins irritant

From patent EP0150638A1, “Pyrethroid composition for the local treatment of skin diseases” (CENTRE DE RECHERCHE D'APPLICATIONS PHARMACEUTIQUES …, priority 1983, dated 1985)
